The text below walks through data of PMC9421654, “Discovery of Substituted Di(pyridin-2-yl)-1,2,4-thiadiazol-5-amines as Novel Macrofilaricidal Compounds for the Treatment of Human Filarial Infections” (Journal of Medicinal Chemistry, 2022).

Each structure is given as a SMILES string. Like-named read-outs stand apart in the source and are kept apart here.

The subject of data set [1] is O. gutturosa adult male worms. The experiment in a line: O. gutturosa adult worm ex vivo assay, motility. It is filed as cell-based, Onchocerca gutturosa. The note with it: Onchocerca gutturosa. The method, boiled down: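 Adult male O. gutturosa from naturally infected cattle were cultured in supplemented MEM at 37 °C, 5% CO2, with four worms per concentration in serial 1-in-4 dilutions. Motility (0–10 scale) was scored every 24 h to 120 h. EC50 (geomean, n=2) for motility reduction came from 4PL fits, and viability was checked by MTT at 120 h.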

The subject of another data set is THLE-2 cells. The experiment in a line: THLE-2 cytotoxicity assay (ATP). The settings on record: for IC50: Homo sapiens; for THLE (cytotoxicity) ATP LC50: THLE-2 cell line. The method, boiled down: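 THLE-2 cells in supplemented LHC-8 medium were exposed for 24 or 72 h to final concentrations of 0.01–300 μM. Viability was read as ATP by CellTiter-Glo luminescence and normalized to DMSO vehicle. IC50 came from nonlinear regression of dose-response curves.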

The test system of data set [2] is O. gutturosa adult male worms. The experiment in a line: O. gutturosa adult worm ex vivo assay, MTT/formazan viability. It is filed as cell-based, Onchocerca gutturosa. The settings on record: supplement, SD in brackets in the PDF table, read-out: O. gutturosa EC50 (uM) MTT viability inhibition. Put shortly: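 Adult male worms from naturally infected Gambian cattle were kept individually in MEM with 10% newborn calf serum at 37 °C, 5% CO2; four worms per concentration. Motility was scored 0-10 every 24 h to 120 h as a percentage of maximum, with ≥50% reduction versus untreated counted active. Afterwards, MTT (0.5 mg/mL, 30 min) formazan was read at 490 nm.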

The nature of data set [3]: LogD measurement (octanol-water). It is filed as physicochemical. The method, boiled down:
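Human and rat liver microsomes (0.3 mg/mL) with 1 mM NADPH and 3µM substrate, 30 minutes at 37 °C in pH 7.4 phosphate/MgCl2, triplicate; LC-MS/MS percentage remaining. LogD: octanol/aqueous buffer (pH 7.4, 2.2, 6.8, 5), 24 h shaking at room temperature. Kinetic solubility: 200 µM, 2% DMSO, 24 h, filtered.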

Where [4] appears, read: read-out: O. gutturosa EC50 μM (SD), ex vivo adult worm motility reduction, SD in brackets.
Setting [5] is: read-out: O. gutturosa EC50 (uM) motility inhibition, supplement, SD in brackets in the PDF table.
The mark [6] stands for this setting: read-out: O. gutturosa EC50, adult worm motility, bound stated.
Setting [7] is: THLE-2, 24 h, read-out: THLE IC50.
Where [8] appears, read: supplement, read-out: measured logD.

Usually EC50 stands for the concentration at which the effect is half-maximal. One may read the IC50 as the concentration at which inhibition is half-maximal. The logD is the decadic logarithm of the distribution of all forms, ionised or not, between an organic phase and buffer at a given pH. Turning to `Cc1cccnc1Nc1nc(-c2ccc(OC(C)C)cn2)ns1` [Compound 10, 3-(5-Isopropoxypyridin-2-yl)-N-(3-methylpyridin-2-yl)-1,2,4-thiadiazol-5-amine], the EC50 in data set [1] (setting [4]) was 0.06 µM; in data set [1] (setting [5]), 0.055 µM; in data set [1] (setting [6]), below 0.1 µM; in data set [2] (Onchocerca gutturosa), 0.01 µM; in data set [2] it was 0.013 µM. Besides, the IC50 in the data set with THLE-2 cells (setting [7]) was found to be 38200 nM. Besides, the logD at 24 h was found to be 2.88 in data set [3] (pH 7.4, read-out: logD) and 2.88 in data set [3] (setting [8]).
Take `Cc1cccnc1Nc1nc(-c2ccc(OC3CC3)cn2)ns1` [Compound 11, 3-(5-Cyclopropoxypyridin-2-yl)-N-(3-methylpyridin-2-yl)-1,2,4-thiadiazol-5-amine]: the values for the EC50 in data set [1] (setting [4]), in data set [1] (setting [5]) and in data set [2] (Onchocerca gutturosa) were 0.11 µM, 0.106 µM and 0.02 µM, respectively. For the same compound, in the data set on THLE-2 cells (setting [7]), the IC50 is above 200000 nM. For the same compound, the logD at 24 h turned out to be 3.4 in data set [3] (pH 7.4, read-out: logD) and 3.4 in data set [3] (setting [8]).
Take `Cc1cccnc1Nc1nc(-c2ccc(OC3CC4(C3)CN(C3CC3)C4)cn2)ns1` [Compound 12, 3-[5-[(2-Cyclopropyl-2-azaspiro[3.3]heptan-6-yl)oxy]-2-pyridyl]-N-(3-methyl-2-pyridyl)-1,2,4-thiadiazol-5-mine]: the EC50 stood at 0.39 µM in data set [1] (setting [4]), 0.393 µM in data set [1] (setting [5]), 0.03 µM in data set [2] (Onchocerca gutturosa) and 0.033 µM in data set [2]. In the data set with THLE-2 cells (THLE-2, read-out: THLE IC50), the IC50 came to 5200 nM. Also, the logD at 24 h in data set [3] (pH 7.4, read-out: logD) amounted to 2.1; in data set [3] (setting [8]), 2.1.
Consider `Cc1cccnc1Nc1nc(-c2ccc(OC3CCN(C4CC4)CC3)cn2)ns1` [Compound 19, 3-[5-[(1-Cyclopropyl-4-piperidyl)oxy]-2-pyridyl]-N-(3-methyl-2-pyridyl)-1,2,4-thiadiazol-5-amine], for which the values for the EC50 in data set [1] (setting [4]), in data set [1] (setting [5]) and in data set [2] (Onchocerca gutturosa) were 0.06 µM, 0.064 µM and 0.19 µM, respectively. Besides, the IC50 in the data set with THLE-2 cells (setting [7]) was 121000 nM. The logD at 24 h in data set [3] (pH 7.4, read-out: logD) was determined as 3.3; in data set [3] (setting [8]), 3.3.
`CC(C)Oc1ccc(-c2nsc(Nc3ncccc3C(C)C)n2)nc1` [Compound 25, 3-(5-Isopropoxy-2-pyridyl)-N-(3-isopropyl-2-pyridyl)-1,2,4-thiadiazol-5-amine]: the EC50 in data set [1] (setting [4]) worked out at 0.1 µM; in data set [1] (setting [5]), 0.099 µM; in data set [2] (Onchocerca gutturosa) it was 0.54 µM. The IC50 in the data set with THLE-2 cells (THLE-2, read-out: THLE IC50) is 3200 nM. The logD at 24 h is 2.85 in data set [3] (pH 7.4, read-out: logD) and 2.85 in data set [3] (setting [8]).
Turning to `Cc1ccnc(-c2nsc(Nc3ncccc3C(F)(F)F)n2)c1` [Compound 26, 3-(4-Methylpyridin-2-yl)-N-(3-(trifluoromethyl)pyridin-2-yl)-1,2,4-thiadiazol-5-amine], the EC50 came out at 0.03 µM in data set [1] (setting [4]), 0.029 µM in data set [1] (setting [5]), 0.07 µM in data set [2] (Onchocerca gutturosa) and 0.069 µM in data set [2]. Besides, the IC50 in the data set with THLE-2 cells (setting [7]) is 65600 nM. Also, the logD at 24 h in data set [3] (pH 7.4, read-out: logD) worked out at 2.45; in data set [3] (setting [8]), 2.45.
Regarding `CC(C)c1ccnc(-c2nsc(Nc3ncccc3C(F)(F)F)n2)c1` [Compound 27], the EC50 in data set [1] (setting [4]) was 0.01 µM; in data set [1] (setting [6]) it was below 0.1 µM; in data set [2] (Onchocerca gutturosa), 0.07 µM; in data set [2], 0.069 µM. Besides, the logD at 24 h in data set [3] (pH 7.4, read-out: logD) came out at 2.5; in data set [3] (setting [8]) it was 2.5.
Turning to `CNc1cccnc1Nc1nc(-c2ccc(OC(C)C)cn2)ns1` [Compound 30], the EC50 in data set [1] (setting [4]) was 0.22 µM; in data set [1] (setting [5]), 0.219 µM; in data set [2] (Onchocerca gutturosa), 0.59 µM. In addition, the IC50 in the data set with THLE-2 cells (THLE-2, read-out: THLE IC50) is 17500 nM. Also, the logD at 24 h in data set [3] (pH 7.4, read-out: logD) came to 2.9; in data set [3] (setting [8]), 2.9.
Regarding `CC(C)Oc1ccc(-c2nsc(Nc3ncccc3N(C)C)n2)nc1` [Compound 31, N^2-(3-(5-Isopropoxypyridin-2-yl)-1,2,4-thiadiazol-5-yl)-N3,N3-dimethylpyridine-2,3-diamine], the figures for the EC50 in data set [1] (setting [4]), in data set [1] (setting [5]) and in data set [2] (Onchocerca gutturosa) were 0.08 µM, 0.083 µM and 0.24 µM, respectively. The IC50 in the data set on THLE-2 cells (setting [7]) came out at 36000 nM. Besides, the “THLE (cytotoxicity) ATP LC50” value in the data set on THLE-2 cells is “did not exhibit significant cellular cytotoxity”. The logD at 24 h was 3.23 in data set [3] (pH 7.4, read-out: logD) and 3.23 in data set [3] (setting [8]).
`CN(C)c1cccnc1Nc1nc(-c2ccc(OC3CC3)cn2)ns1` [Compound 32]: the EC50 in data set [1] (setting [4]) stood at 0.74 µM; in data set [1] (setting [5]), 0.743 µM; in data set [2] (Onchocerca gutturosa), 0.56 µM. Further, the IC50 in the data set on THLE-2 cells (THLE-2, read-out: THLE IC50) amounted to 800 nM. In addition, the logD at 24 h in data set [3] (pH 7.4, read-out: logD) was found to be 2.5; in data set [3] (setting [8]) it was 2.5.
As for `CC(C)c1ccnc(-c2nsc(Nc3cc(C(F)(F)F)ccn3)n2)c1` [Compound 35, 3-(4-Isopropylpyridin-2-yl)-N-(4-(trifluoromethyl)pyridin-2-yl)-1,2,4-thiadiazol-5-amine], the EC50 was found to be 0.05 µM in data set [1] (setting [4]) and 0.15 µM in data set [2] (Onchocerca gutturosa). For the same compound, in the data set on THLE-2 cells (THLE-2, read-out: THLE IC50), the IC50 is 2300 nM. Further, the logD at 24 h is 3 in data set [3] (pH 7.4, read-out: logD) and 3 in data set [3] (setting [8]).
`CC(=O)N(C)c1cccnc1Nc1nc(-c2ccc(OC(C)C)cn2)ns1` [Compound 47, N-(2-((3-(5-Isopropoxypyridin-2-yl)-1,2,4-thiadiazol-5-yl)amino)pyridin-3-yl)-N-methylacetamide]: the figures for the EC50 in data set [1] (setting [4]) and in data set [2] (Onchocerca gutturosa) were 1.07 µM and 1.9 µM, respectively. Also, the “THLE (cytotoxicity) ATP LC50” value in the data set on THLE-2 cells is listed as “did not exhibit significant cellular cytotoxity”. Further, the logD at 24 h in data set [3] (pH 7.4, read-out: logD) was 1.62; in data set [3] (setting [8]), 1.62.
Consider `CC(C)Oc1ccc(-c2nsc(Nc3ncccc3N(C)C(=O)C3CC3)n2)nc1` [Compound 50, N-(2-((3-(5-Isopropoxypyridin-2-yl)-1,2,4-thiadiazol-5-yl)amino)pyridin-3-yl)-N-methylcyclopropanecarboxamide], for which the EC50 in data set [1] (setting [4]) amounted to 0.56 µM; in data set [1] (setting [5]), 0.55 µM; in data set [2] (Onchocerca gutturosa), 2.3 µM. The IC50 with THLE-2 cells (THLE-2, read-out: THLE IC50) was 7400 nM. The logD at 24 h is 2.4 in data set [3] (pH 7.4, read-out: logD) and 2.4 in data set [3] (setting [8]).
